How the values were obtained:
[1] = literature by Zhuang et al.; cited from earlier work
[2] = target: Human T40 (the longest tau isoform formed with 441 amino acid residues) fibrils (Homo sapiens, UniProt P10636); assay: In vitro fluorometric binding assay, recombinant T40 tau fibrils; conditions: for EC50: average±SE, concentration giving half of maximum fluorescence intensity; for λem (nm) T40: detection wavelength; for λem (nm) T40 / λex (nm) T40: compound bound to T40 polymers; for affinity to tau pathologies: fluorometric analysis using Aβ and tau filaments formed in a test tube; for λex (nm) T40: optimal excitation wavelength; for EC50 (Aβ)/EC50 (Tau): ratio of EC50 of Aβ40 fibrils to EC50 of T40 fibrils
Human T40 (the longest tau isoform formed with 441 amino acid residues) fibrils, sequence (P10636 1-441 isoform P10636-8): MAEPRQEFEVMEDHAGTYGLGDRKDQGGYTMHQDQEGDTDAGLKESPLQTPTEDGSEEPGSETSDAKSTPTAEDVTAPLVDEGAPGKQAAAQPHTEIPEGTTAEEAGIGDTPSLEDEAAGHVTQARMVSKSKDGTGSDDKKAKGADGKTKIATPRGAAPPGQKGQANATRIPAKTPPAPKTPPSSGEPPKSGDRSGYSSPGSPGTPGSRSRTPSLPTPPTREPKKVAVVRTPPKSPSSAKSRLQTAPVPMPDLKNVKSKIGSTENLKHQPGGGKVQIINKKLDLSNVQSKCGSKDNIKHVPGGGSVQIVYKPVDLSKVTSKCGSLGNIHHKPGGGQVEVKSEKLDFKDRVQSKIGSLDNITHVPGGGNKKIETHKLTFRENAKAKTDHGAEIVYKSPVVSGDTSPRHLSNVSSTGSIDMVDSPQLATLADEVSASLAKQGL

Aβ40 fibrils = Aβ40 fibrils (Homo sapiens, UniProt P05067); assay: In vitro fluorometric binding assay, Aβ40 fibrils; conditions: for EC50: average±SE, concentration giving half of maximum fluorescence intensity; for λem (nm) Aβ40: detection wavelength; for λem (nm) Aβ40 / λex (nm) Aβ40: compound bound to Aβ40 polymers; for λex (nm) Aβ40: optimal excitation wavelength
Aβ40 fibrils, sequence (P05067 672-711 limits assumed): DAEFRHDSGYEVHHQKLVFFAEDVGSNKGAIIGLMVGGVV

[3] = tested on: fibrous aggregate pathologies in AD grey matter; assay: In vitro autoradiography, AD frontal cortex sections; assay type: binding, human; conditions: up to 1 nM radioligand
[4] = tested on: NFTs in the AD patient's hippocampus; assay: In vivo PET imaging of humans; design: species or system human; conditions: same AD and normal control subjects
Source text: 2 subjects with normal cognitive function ([…]; average 73.5 years old), and 3 AD patients ([…] years old; average 72 years old) were employed for this study. All the subjects were males, and all the AD patients were diagnosed in accordance with the standards of the National Institute of Neurological and Communicative Diseases and Stroke/Alzheimer's Disease and Related Disorders Association (NINCDS-ADRDA). The clinical dementia rating scale was 0 for both normal subjects, and ranged from 1 to 2 with the AD patients. Their cognitive function was evaluated by a mini-mental state examination (MMSE). […] During the [^11C]PBB-PET scanning, artery blood samples are obtained 10, 20, 30, 40, 50, 60, 70, 80, 90, 100, and 110 seconds after the injection, and 2, 2.5, 3, 4, 5, 6, 7, 8, 9, 10, 12, 15, 20, 25, 30, 40, 50, 60 and 70 minutes after the injection, and the amount of radioactivity in the plasma was measured. The radioactivity to match [^11C]PBB3 in unmetabolized plasma was measured by HPLC using the samples from 3, 10, 20, 30 and 60 minutes after the injection (Waters mBondapak C18 column, 7.8 mm×300 mm; acetonitrile/ammonium formate mobile phase, gradient elution=40/60 (0 minutes), 52/48 (6 minutes), 80/20 (7 minutes), 80/20 (8 minutes), 40/60 (9 minutes) and 40/60 (15 minutes); flow rate, 6 mL/minute). […]

[5] = tested on: NFTs in AD brain slices including the hippocampal formation; assay: In vitro autoradiography of AD brains including hippocampal formation; assay type: binding, human; conditions: for total binding after addition of non-radioactive PBB5 (100 μM) and thioflavin-S (10 μM) / signals in hippocampus CAI region and pes hippocampi: 10 nM radioligand; for signals in hippocampus CAI region and pes hippocampi: AD patient's brain slice
Protocol: 12 to 15-month-old non-Tg WT mice and PS19 mice were decapitated, and their brains were frozen and sliced into 20 μm-thick sections in a cryostat (HM560). The sections were placed on slide glass (Matsunami Glass), and kept at −80° C., until an analysis. Similarly, sections of the cerebral cortex were obtained from an AD patient. […] Non-specific bonding was detected in the presence of a 10 μMV non-radioactive ligand. Samples were reacted with [^11C]PBB2 or [^11C]PBB3, and were each washed twice, for 2 minutes, with an ice-cool Tris-HCl buffer solution containing 20% or 10% ethanol, and immersed in ice water for 10 seconds. After that, the sections were dried with warm air, and placed on imaging plates (Fuji Film). The imaging plates were scanned by a BAS500 system (Fuji Film), and autoradiograms were obtained (FIG. 6A).
In order to compare the binding of [^11C]PBB3 and [^11C]PIB to areas inside the human brain where there were plenty of tau pathologies, in vitro autoradiograms were obtained using AD brain slices including the hippocampal formation.

For `O=C(O)c1cc(/C=C/c2ccc(/C=C/c3ccc(O)c(C(=O)O)c3)c(F)c2)ccc1O` [FSB, (E,E)-1-fluoro-2,5-bis(3-hydroxycarbonyl-4-hydroxy)styrylbenzene], the “passing the blood brain barrier” value [1] is given as “difficulty passing the blood brain barrier”.
In the case of `CN(C)c1ccc(/C=C/C=C/c2nc3ccccc3s2)cc1` [PBB1, 4-((1E,3E)-4-(benz[d]thiazole-2-yl)buta-1,3-dienyl)-N,N-dimethylaniline], the EC50 [2] is reported as 402 ± 352 nM, the “λem (nm) T40” value [2] is reported as 565 nm and the “affinity to tau pathologies” value [2] is reported as “high affinity”. For the same compound, the “λex (nm) T40” value [2] was 515 nm, the “EC50 (Aβ)/EC50 (Tau)” value [2] was 10.2 and the EC50 (Aβ40 fibrils) was 4110 nM. The “λem (nm) Aβ40” value (Aβ40 fibrils) was 565 nm and the “λex (nm) Aβ40” value (Aβ40 fibrils) was 440 nm.
With `CC[n+]1c(/C=C/C=C/c2ccc(N(C)C)cc2)sc2ccccc21` [PBB5, 2-((1E,3E)-4-(4-(dimethylamino)phenyl)buta-1,3-dienyl)-3-ethylbenzo[d] thiazole-3-ium] the EC50 [2] was 126 ± 67 nM, the “λem (nm) T40” value [2] was 685 nm and the “affinity to tau pathologies” value [2] was “high affinity”. For the same compound, the “λex (nm) T40” value [2] was 630 nm, the “EC50 (Aβ)/EC50 (Tau)” value [2] was 9.7 and the EC50 (Aβ40 fibrils) was 1220 nM. The “λem (nm) Aβ40” value (Aβ40 fibrils) was 685 nm and the “λex (nm) Aβ40” value (Aβ40 fibrils) was 635 nm.
With `Cc1ccc2c(c1)sc(-c1ccc(N(C)C)cc1)[n+]2C.[Cl-]` [Thioflavin-T, reference compound] the “λem (nm) T40” value [2] was 485 nm, the “λex (nm) T40” value [2] was 445 nm and the “λem (nm) Aβ40” value (Aβ40 fibrils) was 495 nm. The “λex (nm) Aβ40” value (Aβ40 fibrils) was 445 nm.
With `[11CH3]Nc1ccc(/C=C/C=C/c2nc3ccc(O)cc3s2)cc1` [[^11C]PBB2, 2-((1E,3E)-4-(4-([^11C]methylamino)phenyl)buta-1,3-dienyl)benz[d]thiazole-6-ol] the “radiolabeling of fibrous aggregate pathologies, AD grey matters” value [3] was “strongly radio-labeled”.
With `[11CH3]Nc1ccc(/C=C/C=C/c2nc3ccc(O)cc3s2)cn1` [[^11C]PBB3, 2-((1E,3E)-4-(6-([^11C]methylamino)pyridine-3-yl)buta-1,3-dienyl)benz[d]thiazole-6-ol] the “radiolabeling of fibrous aggregate pathologies, AD grey matters” value [3] was “strongly radio-labeled”, the “PET signal in hippocampal formation of AD patient compared to NC” value [4] was “increased” and the “total binding after addition of non-radioactive PBB5 (100 μM) and thioflavin-S (10 μM)” value [5] was “clearly discarded”. The “signals in hippocampus CAI region and pes hippocampi” value [5] was “Strong [^11C]PBB3 signals were observed” and the “binding in cortex region in the side of the collateral sulcus” value ([5]; compared to [^11C]PIB) was “more binding”.
With `[11CH3]Nc1ccc(-c2nc3ccc(O)cc3s2)cc1` [[^11C]PIB, reference compound] the “PET signal in hippocampal formation of AD patient compared to NC” value [4] was “did not change much”, the “total binding after addition of non-radioactive PBB5 (100 μM) and thioflavin-S (10 μM)” value [5] was “clearly discarded, except for the white matter” and the “signals in hippocampus CAI region and pes hippocampi” value [5] was “no [^11C]PIB signal was observed”.
In the case of thioflavin-S, the “passing the blood brain barrier” value [1] is listed as “difficulty passing the blood brain barrier”.
